The values below come from patent US20260284066A1, “TYK2 INHIBITORS AND COMPOSITIONS AND METHODS THEREOF” (LYNK PHARMACEUTICALS CO. LTD., priority 2023, published 2026).

For one data set, the target named is T1, JAK1 (Homo sapiens, UniProt P23458).
T1 construct: purchased Carna Biosciences
Kind of data set: JAK1 kinase activity, microfluidic assay (Caliper). It counts as biochemical. Particulars: JAK1 10 nM, 1 mM ATP. On the procedure:
(§1) Testing for JAK1, JAK2 and TYK2 Kinase Activities
(§2) JAK activity was determined in the reaction buffer 50 mM HEPES, 0.01% Brij35, 10 mM MgCl2, 2 mM DTT by a microfluidic assay. The phosphorylation of a FAM labeled peptide substrate was monitored in the Caliper EZ Reader II (Perkin Elmer). The assay condition for each batch of enzyme (Carna Biosciences) was optimized to obtain 10% conversion rate of peptide substrate.
(§3) The test compounds were dissolved in DMSO to a stock concentration of 10 mM. Three-fold serially diluted compounds with top concentration of 5 μM were pre-incubated with JAK1, JAK2 or TYK2 for 10 min at ambient temperature. The final DMSO concentration of assay mixture was 1%. […] The reaction was stopped by adding 50 mM EDTA.
(§4) And the well without compound but with equivalent DMSO was defined as no inhibition. The percent inhibition was calculated by the following formula:
(§5) wherein • Conversion %_max=the conversion rate in the positive well without addition of compound • Conversion %_sample=the conversion rate of test compounds • Conversion %_min=the conversion rate in the well without addition of enzyme
(§6) The dose-response (percent inhibition) curve was plotted and IC50 values were determined by GraphPad software. The IC50 values of tested compounds were list in Table 3.

A further data set concerns the target T2, TYK2 (Homo sapiens, UniProt P29597).
T2 construct: purchased Carna Biosciences
T2 sequence (P29597 897-1176 limits assumed): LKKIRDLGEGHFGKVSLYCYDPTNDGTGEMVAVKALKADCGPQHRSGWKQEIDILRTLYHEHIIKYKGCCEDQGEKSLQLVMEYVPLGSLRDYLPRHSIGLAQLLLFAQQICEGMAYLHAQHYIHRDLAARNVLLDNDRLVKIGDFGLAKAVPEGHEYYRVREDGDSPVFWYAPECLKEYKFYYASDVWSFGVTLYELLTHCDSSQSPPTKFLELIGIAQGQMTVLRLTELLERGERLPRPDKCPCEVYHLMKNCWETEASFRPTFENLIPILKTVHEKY
Kind of data set: TYK2 kinase activity, microfluidic assay (Caliper). In kind it is biochemical. The conditions noted are these: TYK2 20 nM, 1 mM ATP. The protocol:
as §1, §2, §3, §4, §5, §6

The target in a further data set is T3, TYK2-JH2 domain (Homo sapiens, UniProt P29597).
T3 construct: JAK1-JH2 domain or TYK2-JH2 domain enzyme
Kind of data set: Binding activity test for TYK2 JH2 domain (Tb-antibody/tracer FRET). The conditions noted are these: for JAK1/TYK2 selectivity: ratio of JAK1 JH2 to TYK2 JH2 binding IC50; for IC50: read-out: TYK2 JH2 Binding IC50.

Another data set concerns the target T4, JAK1-JH2 domain (Homo sapiens, UniProt P23458).
T4 construct: JAK1-JH2 domain or TYK2-JH2 domain enzyme
Kind of data set: Binding activity test for JAK1 JH2 domain (Tb-antibody/tracer FRET). Particulars: read-out: JAK1 JH2 Binding IC50.

The next data set has as its target T5, JAK2 (Homo sapiens, UniProt O60674).
T5 construct: purchased Carna Biosciences
Kind of data set: JAK2 kinase activity, microfluidic assay (Caliper). It counts as biochemical. Particulars: JAK2 1.5 nM, 1 mM ATP. On the procedure: as §1, §2, §3, §4, §5, §6

The subject of the next data set is TYK2 pathway. Nature of the data set: IFN-γ release in NK92 cells stimulated by IL-12 (ELISA). In kind it is cell-based. The conditions noted are these: Homo sapiens, IL-12 2.5 ng/mL. Background: ELISA stands for enzyme-linked immunosorbent assay.
Data set [1] in a line: Microsomal metabolic stability assay. It counts as in vitro ADME, human. Particulars: for half-life at 1 µM: read-out: Human LM T½. The procedure, abridged: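 Pre-incubated 5 min at 37 °C in 100 mM potassium phosphate pH 7.4, 1.0 mM EDTA; final 0.5 mg/mL microsomal protein, 1 μM test article, 2 mM NADPH. Sampled at 0, 5, 15, 30, 45 min, quenched with cold acetonitrile, LC/MS/MS. T1/2 from ln % remaining vs time; CLint = 0.693/T1/2/mg protein per mL.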

The next data set relates to pSTAT1. Nature of the data set: Phosphorylation inhibition of STAT in human whole blood (IFN-alpha stimulated, flow cytometry). The conditions noted are these: T-cell, CD3+ T cells, read-out: pSTAT1 inhibition in hWB (IC50). In kind it is cell-based. The protocol: Phosphorylation Inhibition of STAT in Human Whole Blood Testing: The inhibitory potential of test articles in human whole blood assay was evaluated by the method of flow cytometry. IFN-alpha will activate JAK1 and TYK2 kinase in T cells by binding to IFN receptors, and then lead to phosphorylation of STAT1 and STAT2. The phosphorylated STAT1 enter nuclear and promote transcription and expression of IFN-gamma. To evaluate the efficacy of TYK2i in T cells, freshly collected human whole blood will be stimulated with certain unit of human IFN-alpha (Universal Type I IFN (1MU), R&D, 11200-2) for 20 mins in incubator. After stimulation, fix cells with PhosflowTM Fix Buffer I (BD, 557870), and then collect fixed cells by centrifugation (500 g, 8 min). Wash cells once with pre-cooled PBS, and then permeabilize cells with cold Perm Buffer III buffer (BD, 558050) for 45 mins on ice. Collect cells by centrifugation (600 g, 8 min) and washed twice with cold PBS. Stain cells with anti-human CD3(FITC Mouse Anti-Human CD3, BD, 555332) and anti-pSTAT1_Y701 (Alexa Fluor 647 Mouse Anti-Stat1 ([…]), BD, 612597) antibodies. Detect pSTAT1 by flow cytometry (CytoFlex S) and analyze data with FlowJo and GraphPad Prism 8 software. IC50 values of test articles were determined using 4-parameter logistic equation.
(In general: Flow cytometry measures light scatter and fluorescence of single cells or particles in a stream.)

A short description of the next data set: Kinetic solubility. In kind it is physicochemical. Particulars: aqueous buffer, 100 mM pH 7.4 phosphate buffer, 1% DMSO, room temperature, read-out: Kinetics Solubility_PBS7.4. The protocol: Aliquots of 8 μL of reference and test compound stock solutions (10 mM/5 mM) are added into 792 μL of 100 mM pH 7.4 phosphate buffer. The final DMSO concentration is 1%. Sample tubes are shaken for 2 hours at 1000 rpm at room temperature. Samples are centrifuged at 12000 rpm for 10 min to precipitate un-dissolved particles. And transfer the supernatants to a new tube or plate. Add 5 μL of samples (no diluted, 10 times diluted and 100 times diluted) and standard curve samples to 95 μL of ACN containing IS for LC-MS/MS analysis.

The subject of data set [2] is Ba/F3-FL-TYK2-P760L cells. Kind of data set: Anti-proliferative assay in Ba/F3-FL-TYK2-P760L cells (Cell-Titer Glo). It counts as cell-based.
Method: These engineered Ba/F3-FL-TYK2-P760L cells were used to monitor JAK inhibitory activities of the compounds in the cellular. […] Cells were seeded at 2000/well of white flat bottom 96-well plates. The well containing medium only was used as background control. […] The test compounds were dissolved in DMSO to a stock concentration of 20 mM. […] The final DMSO concentration was 0.1%. […] The viability was measured by cellular ATP determination using the Cell-Titer Glo luciferase reagent (Promega). The Luminescence value was recorded by a multi-label reader Envision (PerkinElmer). Inhibition Rate was calculated relative to vehicle (DMSO) treated control wells using following formula:
wherein • RLU_compound=the relative light unit of cells treated with test compounds • RLU_blank=the relative light unit of medium with DMSO only • RLU_control=the relative light unit of cells treated with DMSO only
Where [3] appears, read: human, liver microsomes, pH 7.4, human liver microsomes 0.5 mg/mL.

≈ marks a conversion by molar mass, not a printed value.

T5 sequence (O60674 849-1124 limits assumed): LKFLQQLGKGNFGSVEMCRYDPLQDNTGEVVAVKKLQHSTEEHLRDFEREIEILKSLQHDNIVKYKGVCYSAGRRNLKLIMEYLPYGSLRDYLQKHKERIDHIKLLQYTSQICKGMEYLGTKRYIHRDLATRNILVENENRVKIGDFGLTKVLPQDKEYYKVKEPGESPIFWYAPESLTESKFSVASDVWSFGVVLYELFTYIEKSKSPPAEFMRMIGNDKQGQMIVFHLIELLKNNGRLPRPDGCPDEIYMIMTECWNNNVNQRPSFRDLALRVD
T1 sequence (P23458 875-1153 limits assumed): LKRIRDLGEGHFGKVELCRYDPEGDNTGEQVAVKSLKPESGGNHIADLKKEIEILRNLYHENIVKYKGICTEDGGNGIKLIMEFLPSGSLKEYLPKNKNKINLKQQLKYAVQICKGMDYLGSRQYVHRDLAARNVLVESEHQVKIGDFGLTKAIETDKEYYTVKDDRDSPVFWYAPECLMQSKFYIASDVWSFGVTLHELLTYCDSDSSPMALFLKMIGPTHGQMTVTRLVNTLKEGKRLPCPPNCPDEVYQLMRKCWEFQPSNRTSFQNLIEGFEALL
T3 sequence (P29597 589-875 limits assumed): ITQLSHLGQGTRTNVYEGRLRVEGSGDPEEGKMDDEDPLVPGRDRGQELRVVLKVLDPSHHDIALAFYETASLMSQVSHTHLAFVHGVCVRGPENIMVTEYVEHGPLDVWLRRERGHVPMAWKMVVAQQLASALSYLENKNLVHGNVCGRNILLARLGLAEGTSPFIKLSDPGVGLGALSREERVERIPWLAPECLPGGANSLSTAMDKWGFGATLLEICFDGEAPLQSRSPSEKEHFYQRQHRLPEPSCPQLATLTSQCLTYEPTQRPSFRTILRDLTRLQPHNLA
T4 sequence (P23458 583-855 limits assumed): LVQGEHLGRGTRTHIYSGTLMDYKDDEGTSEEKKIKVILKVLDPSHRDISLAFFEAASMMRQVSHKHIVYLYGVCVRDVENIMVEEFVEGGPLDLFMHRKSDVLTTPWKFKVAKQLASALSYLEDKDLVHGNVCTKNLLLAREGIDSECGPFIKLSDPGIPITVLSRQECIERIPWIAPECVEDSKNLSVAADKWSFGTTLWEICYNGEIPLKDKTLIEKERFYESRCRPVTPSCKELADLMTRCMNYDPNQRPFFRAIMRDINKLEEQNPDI
From the text for TYK2 pathway: IFN-γ Release in NK92 Cells Stimulated by IL-12
Purpose: To evaluate the inhibition activity of TYK2 inhibitors in NK92 cells on TYK2 pathway through ELISA method.

On to `CNC(=O)c1cnc(NC(=O)C2CC2)cc1Nc1ncc2cnn(CC(C)(F)F)c2c1OC` [Example 23, 6-(Cyclopropanecarboxamido)-4-((1-(2,2-difluoropropyl)-7-methoxy-1H-pyrazolo[4,3-c]pyridin-6-yl)amino)-N-methylnicotinamide], for which the IC50 against JAK1 was above 20000 nM; on TYK2, above 20000 nM; at TYK2-JH2 domain, 0.315 nM; on JAK1-JH2 domain it was 126 nM; against JAK2, above 20000 nM; with TYK2 pathway, 17.4 nM. In addition, on TYK2-JH2 domain, the JAK1/TYK2 selectivity turned out to be 398.70.
For the molecule `[2H]C([2H])([2H])NC(=O)c1nnc(NC(=O)C2CC2)cc1Nc1ncc2cnn(CC(C)(F)F)c2c1OC` [Example 24, 6-(Cyclopropanecarboxamido)-4-((1-(2,2-difluoropropyl)-7-methoxy-1H-pyrazolo[4,3-c]pyridin-6-yl)amino)-N-(methyl-d3)pyridazine-3-carboxamide], the IC50 against JAK1 is above 20000 nM; on TYK2 it was above 20000 nM; on TYK2-JH2 domain, 0.271 nM; on JAK1-JH2 domain, 21.6 nM; at JAK2, above 20000 nM; in the data set on TYK2 pathway, 8.94 nM. In addition, the JAK1/TYK2 selectivity on TYK2-JH2 domain was 79.86. Also, in [1] (human, liver microsomes, pH 7.4, human liver microsomes 0.5 mg/mL, read-out: Human LM Clint), the microsomal CLint at 1 µM turned out to be 4.16 µL/min/mg. Besides, the half-life at 1 µM in [1] (setting [3]) came to 5.55 h.
Regarding `[2H]C([2H])([2H])NC(=O)c1cnc(Nc2ccc(N3CCOCC3)cn2)cc1Nc1ccc2cnn(CC(C)(F)F)c2c1OC` [Example 4, 4-((1-(2,2-Difluoropropyl)-7-methoxy-1H-indazol-6-yl)amino)-N-(methyl-d3)-6-((5-morpholinopyridin-2-yl)amino)nicotinamide], the half-inhibitory concentration (IC50) at JAK1 was above 20000 nM; against TYK2 it was above 20000 nM; at TYK2-JH2 domain, 0.165 nM; with pSTAT1 it was 152 nM; on JAK1-JH2 domain it was 8.45 nM; at JAK2 it was above 20000 nM. Besides, the IC50 in the data set with TYK2 pathway came to 14 nM. Besides, the JAK1/TYK2 selectivity at TYK2-JH2 domain is 51.23. The solubility kinetic at 2 h in the data set “Kinetic solubility” is 61.8 µM (≈ 34.3 µg/mL).
As to `[2H]C([2H])([2H])NC(=O)c1cnc(NC(=O)C2CC2)cc1Nc1ncn2ncc(C(C)C(F)(F)F)c2c1OC` (stereo not shown) [Example 5, 6-(Cyclopropanecarboxamido)-4-((4-methoxy-3-(1,1,1-trifluoropropan-2-yl)pyrazolo[1,5-c]pyrimidin-5-yl)amino)-N-(methyl-d3)nicotinamide], the JAK1/TYK2 selectivity on TYK2-JH2 domain was 590.59. For the same molecule, the IC50 is 0.271 nM on TYK2-JH2 domain, 160 nM on JAK1-JH2 domain and 52.4 nM in data set [2]. Also, in data set [1] (human liver microsomes 0.5 mg/mL, 1 μM), the “Human LM Clint” value is 50.06 µL/min/mg. The half-life at 1 µM in data set [1] (setting [3]) is 0.462 h.

Usually IC50 stands for the concentration that gives 50% inhibition.
